Test system: strains of Enterobacteriaceae producing various carbapenemases (class A, D and B; 169 strains)
Assay: Meropenem or tebipenem potentiation by Compounds 97 or 62 (MIC)
Assay type: cell-based
Method in brief: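 Meropenem and tebipenem MICs measured alone or with Compound 97 or 62 held at a fixed 8 μg/ml in the growth medium. Panel of 169 clinical Enterobacteriaceae isolates expressing class A, D and B carbapenemases, alone or with other beta-lactamases.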

Measured: Meropenem MIC alone (M)

C[C@@H](O)[C@H]1C(=O)N2C(C(=O)O)=C(S[C@@H]3CN[C@H](C(=O)N(C)C)C3)[C@H](C)[C@H]12 [M]
Y (MIC of 1 μg/mL to 10 μg/mL): KP1184 Klebsiella pneumoniae SHV-OSBL(2b), IMP-1 | KP1188 Klebsiella pneumoniae SHV-OSBL(2b), CTX-M-15, NDM-1 | KP1228 Klebsiella pneumoniae OXA-48 TEM SHV CTX-M-15 | KP1230 Klebsiella pneumoniae OXA-48 TEM SHV CTX-M-15 | KP1231 Klebsiella pneumoniae OXA-48 TEM SHV CTX-M-15 | PM1025 Proteus mirabilis SHV-5(2be), TEM-OSBL(2b), VEB-2, VIM-1 | SM1024 Serratia marcescens TEM-1(2b), IMP-47
Z (MIC of greater than 10 μg/mL): KP1182 Klebsiella pneumoniae SHV-OSBL(2b), NDM-1, OXA-232(c) | KP1183 Klebsiella pneumoniae SHV-OSBL(2b), TEM-OSBL(2b), CTX-M-15, NDM-1 | KP1185 Klebsiella pneumoniae SHV-OSBL(2b), TEM-OSBL(2b), IMP-4 | KP1186 Klebsiella pneumoniae CTX-M-15, NDM-1 | KP1187 Klebsiella pneumoniae SHV-55(2be), TEM-OSBL(2b), CTX-M-15, NDM-1 | KP1189 Klebsiella pneumoniae TEM-OSBL(2b), CTX-M-15, CTX-M-27, NDM-1 | KP1190 Klebsiella pneumoniae KPC-4 VIM-4 TEM SHV | KP1191 Klebsiella pneumoniae KPC-2 | KP1192 Klebsiella pneumoniae KPC-2 TEM SHV | KP1193 Klebsiella pneumoniae KPC-3 TEM SHV | KP1194 Klebsiella pneumoniae KPC TEM SHV | KP1195 Klebsiella pneumoniae KPC TEM CTX-M-15 | KP1196 Klebsiella pneumoniae KPC TEM SHV CTX-M-15 CMY | KP1197 Klebsiella pneumoniae KPC-3, VIM-1 TEM SHV | KP1198 Klebsiella pneumoniae KPC-3, VIM-1 TEM SHV | KP1199 Klebsiella pneumoniae KPC-3 TEM SHV | KP1200 Klebsiella pneumoniae KPC-3 TEM SHV | KP1210 Klebsiella pneumoniae KPC SHV TEM | KP1211 Klebsiella pneumoniae KPC SHV TEM CTX-M-15 | KP1212 Klebsiella pneumoniae KPC SHV TEM CTX-M-15 | KP1213 Klebsiella pneumoniae KPC SHV TEM CTX-M-15 | KP1214 Klebsiella pneumoniae KPC SHV TEM + 1.9 kb | KP1215 Klebsiella pneumoniae KPC SHV | KP1216 Klebsiella pneumoniae KPC SHV TEM + 1.9 kb | KP1217 Klebsiella pneumoniae KPC SHV TEM + 1.9 kb | KP1218 Klebsiella pneumoniae KPC SHV TEM + 1.9 kb | KP1219 Klebsiella pneumoniae KPC SHV TEM + 1.9 kb | KP1220 Klebsiella pneumoniae KPC SHV TEM + 1.9 kb | KP1221 Klebsiella pneumoniae KPC SHV TEM + 1.9 kb | KP1222 Klebsiella pneumoniae KPC SHV TEM IMP | KP1223 Klebsiella pneumoniae KPC SHV TEM | KP1224 Klebsiella pneumoniae KPC SHV TEM | KP1225 Klebsiella pneumoniae KPC SHV TEM + 1.9 kb CMY | KP1226 Klebsiella pneumoniae KPC SHV TEM + 1.9 kb | KP1227 Klebsiella pneumoniae KPC SHV TEM CTX-M-15 | KP1229 Klebsiella pneumoniae OXA-48 TEM SHV CTX-M-15 | KP1232 Klebsiella pneumoniae OXA-48 TEM SHV CTX-M-15 | KP1234 Klebsiella pneumoniae OXA-48 TEM SHV CTX-M-15 | KP1236 Klebsiella pneumoniae OXA-48 TEM SHV CTX-M-15 | PM1024 Proteus mirabilis TEM-1(2b), CMY-16, VIM-1 | PM1026 Proteus mirabilis DHA-1, IMP-26 | PM1027 Proteus mirabilis VIM-5 | SM1023 Serratia marcescens VIM-4

From patent publication US10206937B2, “Boronic acid derivatives and therapeutic uses thereof” (Qpex Biopharma, Inc., priority 2014, dated 2019)
